Data published in patent US20260022143A1, “Cyclic Peptide Inhibitors of IL-23” (JANSSEN PHARMACEUTICA NV, priority 2022, published 2026).
pIC50: −log10 of the molar value. Positions of bridges follow the written chain, without caps; N, C: chain ends. Non-standard residues stand in square brackets, D forms with d. Residues, ends and D or L forms follow the SMILES beside them. *: point of attachment. Me3N+(CH2)2O(CH2)2O(CH2)2CO = C[N+](C)(C)CCOCCOCCC(=O)*; 2Nal = N[C@@H](Cc1ccc2ccccc2c1)C(=O)O; 3Pal = N[C@@H](Cc1cccnc1)C(=O)O; Lys(Me) = CNCCCC[C@H](N)C(=O)O; Pen = CC(C)(S)[C@H](N)C(=O)O; Thp = NC1(C(=O)O)CCOCC1; X3 = C[N+](C)(C)CCCCC*; Sar = CNCC(=O)O

What was measured:
[1] = biological target: T1, IL-23R (Homo sapiens, UniProt Q5VWK5); test: IL23R Reporter Assay; assay type: cell-based; conditions: HEK293 cells containing IL-23R, IL-12RP1 and STAT-inducible firefly luciferase reporter; 10 ng/mL IL-23 (EC90); 5 h at 37° C.; read-out: IL23R Reporter Assay
T1 construct: host or cells: HEK293
T1 sequence (Q5VWK5 24-629): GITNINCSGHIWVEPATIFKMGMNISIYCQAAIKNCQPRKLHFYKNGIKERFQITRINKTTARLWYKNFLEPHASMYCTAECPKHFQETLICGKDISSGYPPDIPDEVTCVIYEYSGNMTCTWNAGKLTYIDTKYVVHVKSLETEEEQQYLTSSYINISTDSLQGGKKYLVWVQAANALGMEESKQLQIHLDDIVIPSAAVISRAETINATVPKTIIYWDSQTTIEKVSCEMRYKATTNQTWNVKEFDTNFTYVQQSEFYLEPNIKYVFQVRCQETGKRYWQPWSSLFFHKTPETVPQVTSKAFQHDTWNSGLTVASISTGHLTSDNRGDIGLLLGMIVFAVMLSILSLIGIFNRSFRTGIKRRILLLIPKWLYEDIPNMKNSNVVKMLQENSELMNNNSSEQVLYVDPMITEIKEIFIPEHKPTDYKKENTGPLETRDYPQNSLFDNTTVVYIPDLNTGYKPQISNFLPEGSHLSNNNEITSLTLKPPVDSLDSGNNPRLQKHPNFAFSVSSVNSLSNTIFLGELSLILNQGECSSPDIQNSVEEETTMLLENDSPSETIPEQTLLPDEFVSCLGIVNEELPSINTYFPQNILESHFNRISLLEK

[2] = Exposed Polar Surface Area (EPSA); assay type: physicochemical; conditions: SFC on Chirex 3014 column; sample 1 mM DMSO stock; read-out: EPSA
In short: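 Chirex 3014 column, 35 °C, 4 mL/min; CO2/MeOH + 20 mM NH4 formate, 5→60% modifier at 20%/min. UV/MS detection. EPSA (Å^2) from retention time vs 8-standard calibration line; duplicates; 1 mM DMSO stock injected undiluted.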

SMILES	pIC50 [1]	EPSA [2] [A^2]
CC(=O)NCCCC[C@@H]1NC(=O)[C@H](Cc2c[nH]c3c(-c4cccc(NC(C)=O)c4)cccc23)NC(=O)[C@H]([C@@H](C)O)NC(=O)[C@H](CC(N)=O)NC(=O)[C@@H](NC(C)=O)C(C)(C)SSC(C)(C)[C@@H](C(=O)N[C@@H](Cc2ccc(OCCCCC[N+](C)(C)C)cc2)C(=O)N[C@@H](Cc2ccc3ccccc3c2)C(=O)NC2(C(=O)N[C@@H](CCCCNC(C)=O)C(=O)N[C@@H](CC(N)=O)C(=O)N[C@@H](Cc3cncc(C)c3)C(=O)N(C)CC(N)=O)CCOCC2)NC1=O [compound 503, MeCO-Pen(3)-N-T-7(3NAcPh)W-K(Ac)-Pen(3)-TMAPF-2Nal-THP-K(Ac)-N-5MePyridinAla-Sar-CONH2]	8.08	169
CC(=O)NCCCC[C@@H]1NC(=O)[C@H](Cc2c[nH]c3c(C)cccc23)NC(=O)[C@H]([C@@H](C)O)NC(=O)[C@H](CC(N)=O)NC(=O)[C@@H](NC(=O)CCOCCOCC[N+](C)(C)C)C(C)(C)SSC(C)(C)[C@@H](C(=O)N[C@@H](Cc2ccc(OCCN)cc2)C(=O)N[C@@H](Cc2ccc3ccccc3c2)C(=O)NC2(C(=O)N[C@@H](CCC(=O)O)C(=O)N[C@@H](CC(N)=O)C(=O)N[C@@H](Cc3cncc(C)c3)C(=O)N(C)CC(N)=O)CCOCC2)NC1=O [compound 506, cPEG3aCO-Pen(3)-N-T-7MeW-K(Ac)-Pen(3)-AEF-2Nal-THP-E-N-5MePyridinAla-Sar-CONH2]	8.39	191
CC(=O)N(C)CCCC[C@@H]1NC(=O)[C@H](C)NC(=O)[C@H]([C@@H](C)O)NC(=O)[C@H](CC(=O)N(C)C)NC(=O)[C@@H](NC(=O)CCOCCOCC[N+](C)(C)C)C(C)(C)SSC(C)(C)[C@@H](C(=O)N[C@@H](Cc2ccc(OCCCCC[N+](C)(C)C)cc2)C(=O)N[C@@H](Cc2ccc3ccccc3c2)C(=O)NC2(C(=O)N[C@@H](CCCCN(C)C(C)=O)C(=O)N[C@@H](CC(N)=O)C(=O)N[C@@H](Cc3cccnc3)C(=O)N(C)CC(=O)N(C)C)CCOCC2)NC1=O [compound 512, cPEG3aCO-Pen(3)-N(N(Me)2)-T-A-K(NMeAc)-Pen(3)-TMAPF-2Nal-THP-K(NMeAc)-N-3Pya-Sar-CONMe2] ({Me3N+(CH2)2O(CH2)2O(CH2)2CO}-[Pen]D(NMe2)TA[Lys(Me)](Ac)[Pen]Y(X3)[2Nal][Thp][Lys(Me)](Ac)N[3Pal][Sar]-NMe2; disulfide 1-6)	< 5.13	205
CC(=O)NCCCC[C@@H]1NC(=O)[C@H](Cc2c[nH]c3c(-c4cccc(NC(C)=O)c4)cccc23)NC(=O)[C@H]([C@@H](C)O)NC(=O)[C@H](CC(N)=O)NC(=O)[C@@H](NC(C)=O)C(C)(C)SSC(C)(C)[C@@H](C(=O)N[C@@H](Cc2ccc(OCCNC(=N)N)cc2)C(=O)N[C@@H](Cc2ccc3ccccc3c2)C(=O)NC2(C(=O)N[C@@H](CCCCN(C)C(C)=O)C(=O)N[C@@H](CC(N)=O)C(=O)N[C@@H](Cc3cccnc3)C(=O)N(C)CC(N)=O)CCOCC2)NC1=O [compound 515, MeCO-Pen(3)-N-T-7(3NAcPh)W-K(Ac)-Pen(3)-AEF(G)-2Nal-THP-K(NMeAc)-N-3Pya-Sar-CONH2]	8.42	197

Further lines, results first:

pIC50 [1]	EPSA [2] [A^2]	SMILES
8.07	178	CC(=O)NCCCC[C@@H]1NC(=O)[C@H](Cc2c[nH]c3c(-c4cccc(NC(C)=O)c4)cccc23)NC(=O)[C@H]([C@@H](C)O)NC(=O)[C@H](CC(N)=O)NC(=O)[C@@H](NC(C)=O)C(C)(C)SSC(C)(C)[C@@H](C(=O)N[C@@H](Cc2ccc(OCCCCC[N+](C)(C)C)cc2)C(=O)N[C@@H](Cc2ccc3ccccc3c2)C(=O)NC2(C(=O)N[C@@H](CCC(=O)O)C(=O)N[C@@H](CC(N)=O)C(=O)N[C@@H](Cc3cncc(C)c3)C(=O)N(C)CC(N)=O)CCOCC2)NC1=O [compound 504, MeCO-Pen(3)-N-T-7(3NAcPh)W-K(Ac)-Pen(3)-TMAPF-2Nal-THP-E-N-5MePyridinAla-Sar-CONH2]
8.52	164	CC(=O)N(C)CCCC[C@@H]1NC(=O)[C@H](Cc2c[nH]c3ccccc23)NC(=O)[C@H]([C@@H](C)O)NC(=O)[C@H](CC(=O)N(C)C)NC(=O)[C@@H](NC(=O)CCOCCOCC[N+](C)(C)C)C(C)(C)SSC(C)(C)[C@@H](C(=O)N[C@@H](Cc2ccc(OCCCCC[N+](C)(C)C)cc2)C(=O)N[C@@H](Cc2ccc3ccccc3c2)C(=O)NC2(C(=O)N[C@@H](CCCCN(C)C(C)=O)C(=O)N[C@@H](CC(N)=O)C(=O)N[C@@H](Cc3cccnc3)C(=O)N(C)CC(=O)N(C)C)CCOCC2)NC1=O [compound 507, cPEG3aCO-Pen(3)-N(N(Me)2)-T-W-K(NMeAc)-Pen(3)-TMAPF-2Nal-THP-K(NMeAc)-N-3Pya-Sar-CONMe2] ({Me3N+(CH2)2O(CH2)2O(CH2)2CO}-[Pen]D(NMe2)TW[Lys(Me)](Ac)[Pen]Y(X3)[2Nal][Thp][Lys(Me)](Ac)N[3Pal][Sar]-NMe2; disulfide 1-6)
7.49	161	CC(=O)N(C)CCCC[C@@H]1NC(=O)[C@H](Cc2ccc3ccccc3c2)NC(=O)[C@H]([C@@H](C)O)NC(=O)[C@H](CC(=O)N(C)C)NC(=O)[C@@H](NC(=O)CCOCCOCC[N+](C)(C)C)C(C)(C)SSC(C)(C)[C@@H](C(=O)N[C@@H](Cc2ccc(OCCCCC[N+](C)(C)C)cc2)C(=O)N[C@@H](Cc2ccc3ccccc3c2)C(=O)NC2(C(=O)N[C@@H](CCCCN(C)C(C)=O)C(=O)N[C@@H](CC(N)=O)C(=O)N[C@@H](Cc3cccnc3)C(=O)N(C)CC(=O)N(C)C)CCOCC2)NC1=O [compound 509, cPEG3aCO-Pen(3)-N(N(Me)2)-T-2Nal-K(NMeAc)-Pen(3)-TMAPF-2Nal-THP-K(NMeAc)-N-3Pya-Sar-CONMe2] ({Me3N+(CH2)2O(CH2)2O(CH2)2CO}-[Pen]D(NMe2)T[2Nal][Lys(Me)](Ac)[Pen]Y(X3)[2Nal][Thp][Lys(Me)](Ac)N[3Pal][Sar]-NMe2; disulfide 1-6)
< 5.91	201	CC(=O)N(C)CCCC[C@@H]1NC(=O)[C@H](Cc2ccccc2)NC(=O)[C@H]([C@@H](C)O)NC(=O)[C@H](CC(=O)N(C)C)NC(=O)[C@@H](NC(=O)CCOCCOCC[N+](C)(C)C)C(C)(C)SSC(C)(C)[C@@H](C(=O)N[C@@H](Cc2ccc(OCCCCC[N+](C)(C)C)cc2)C(=O)N[C@@H](Cc2ccc3ccccc3c2)C(=O)NC2(C(=O)N[C@@H](CCCCN(C)C(C)=O)C(=O)N[C@@H](CC(N)=O)C(=O)N[C@@H](Cc3cccnc3)C(=O)N(C)CC(=O)N(C)C)CCOCC2)NC1=O [compound 510, cPEG3aCO-Pen(3)-N(N(Me)2)-T-F-K(NMeAc)-Pen(3)-TMAPF-2Nal-THP-K(NMeAc)-N-3Pya-Sar-CONMe2] ({Me3N+(CH2)2O(CH2)2O(CH2)2CO}-[Pen]D(NMe2)TF[Lys(Me)](Ac)[Pen]Y(X3)[2Nal][Thp][Lys(Me)](Ac)N[3Pal][Sar]-NMe2; disulfide 1-6)
< 4.78	198	CC(=O)N(C)CCCC[C@@H]1NC(=O)[C@H](CC(C)C)NC(=O)[C@H]([C@@H](C)O)NC(=O)[C@H](CC(=O)N(C)C)NC(=O)[C@@H](NC(=O)CCOCCOCC[N+](C)(C)C)C(C)(C)SSC(C)(C)[C@@H](C(=O)N[C@@H](Cc2ccc(OCCCCC[N+](C)(C)C)cc2)C(=O)N[C@@H](Cc2ccc3ccccc3c2)C(=O)NC2(C(=O)N[C@@H](CCCCN(C)C(C)=O)C(=O)N[C@@H](CC(N)=O)C(=O)N[C@@H](Cc3cccnc3)C(=O)N(C)CC(=O)N(C)C)CCOCC2)NC1=O [compound 511, cPEG3aCO-Pen(3)-N(N(Me)2)-T-L-K(NMeAc)-Pen(3)-TMAPF-2Nal-THP-K(NMeAc)-N-3Pya-Sar-CONMe2] ({Me3N+(CH2)2O(CH2)2O(CH2)2CO}-[Pen]D(NMe2)TL[Lys(Me)](Ac)[Pen]Y(X3)[2Nal][Thp][Lys(Me)](Ac)N[3Pal][Sar]-NMe2; disulfide 1-6)
